Test results published in patent publication US20050010048A1 (published 2005).
Structures can show the parent of a compound that is named as a salt.

Row | melting point | Compound
1 | 123 to 124 °C | Cc1cc(C(=O)c2cccc(Cc3ccccc3)c2)c(O)c2ncccc12
2 | 148 to 150 °C | O=C(c1cc(Cc2ccccc2)cc(Cn2ccnc2)c1)c1cc(Cl)c2cccnc2c1O (as salt: TFA)
